{"source": "paper doi:10.1101/2025.03.24.644576v1", "about": "(biorxiv, 2025)", "key": {"[1]": {"biological_target": "T1, AmRDL receptor (Apis mellifera, UniProt A0A8U0Y4W2, F191A)", "T1 sequence (A0A8U0Y4W2 19-476 F191A)": "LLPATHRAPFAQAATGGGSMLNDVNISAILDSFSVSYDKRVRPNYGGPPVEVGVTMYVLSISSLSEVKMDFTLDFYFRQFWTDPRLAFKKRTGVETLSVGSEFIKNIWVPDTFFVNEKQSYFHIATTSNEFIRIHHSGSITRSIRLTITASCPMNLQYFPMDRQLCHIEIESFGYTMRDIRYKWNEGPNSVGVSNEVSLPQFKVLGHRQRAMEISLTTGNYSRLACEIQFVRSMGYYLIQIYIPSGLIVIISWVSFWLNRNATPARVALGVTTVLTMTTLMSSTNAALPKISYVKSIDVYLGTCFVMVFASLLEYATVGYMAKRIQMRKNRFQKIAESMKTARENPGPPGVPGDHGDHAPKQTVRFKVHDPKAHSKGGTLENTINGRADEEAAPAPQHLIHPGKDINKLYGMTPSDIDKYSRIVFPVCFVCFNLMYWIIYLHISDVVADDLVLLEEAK", "assay": "two-electrode voltage clamp, Xenopus oocytes", "format": "cell-based"}, "[2]": {"biological_target": "T2, AmRDL receptor (Apis mellifera, UniProt A0A8U0Y4W2)", "T2 sequence (A0A8U0Y4W2 19-476)": "T1 sequence (A0A8U0Y4W2 19-476 F191A)", "assay": "two-electrode voltage clamp, Xenopus oocytes", "format": "cell-based"}}}
{"smiles": "NCCCC(=O)O", "note": "[GABA]", "values": [{"measurement": "EC50", "setting": "[1]", "result": 1, "unit": "mM"}, {"measurement": "EC50", "setting": "[2]", "result": 10, "unit": "µM"}]}
